The text below walks through data of patent EP0701444B1, “METHODS AND COMPOSITIONS FOR INDUCING SLEEP” (Purdue Pharma Ltd., priority 1993, dated 1994).

As a reminder, the IC50 is the point on the concentration scale where inhibition reaches its midpoint.

Values joined by “and” are separate entries in the source; they are usually repeats but may differ in a detail not shown here. Equal entries are not always repeated. Structures can show the parent of a compound that is named as a salt.

For one assay, the target named is steroid site on the GABAA receptor-chloride channel complex. Description: [35S]TBPS binding assay. Also noted: species or system Male Sprague-Dawley rats. Particulars: inhibition of [35S]TBPS (2 nM) binding, rat cerebral cortex P2 membranes, 5 µM GABA, 90 minute incubation at 22°C. The procedure: TBPS binding assays were conducted according to the following procedures, which are described in Gee, K.W.; Lawrence, L.J.; and Yamamura, H. I., "Modulation of the Chloride Ionophore by Benzodiazepine Receptor Ligands Influence of Gamma-Aminobutyric Acid and Ligand Efficacy," Molecular Pharmacology, 30:218, 1986. Male Sprague-Dawley rats (200-250g) were anesthetized with carbon dioxide and decapitated. The rats' brains were removed and the cerebral cortices were dissected and homogenized in 10 volumes of 0.32 M sucrose. Tissue was centrifuged at 1000 x g for 10 minutes and the resultant supernatant was centrifuged at 9,000 g for 20 minutes. The resultant pellet was resuspended in 10 volumes of 200 mM NaCl/50 mM Na-K phosphate pH 7.4 buffer (binding buffer) and then centrifuged at 9,000 x g for 10 minutes. This washing procedure was repeated twice and the final P2 pellet was resuspended in the binding buffer. For the binding assay, [^35S] TBPS (2 nM) was co-incubated in binding buffer with P2 membranes and 5 µM GABA and either 1) no additions to measure total binding; 2) 2 µM unlabeled TPBS to measure nonspecific binding; 3) the neurosteroid ranging in concentration from 1 Nm to 10µM. Following a 90 minute incubation at 22°C, the suspension was filtered and the bound radioactivity was determined by liquid scintillation counting. […] A lower IC50 indicates higher affinity for the steroid site on the GABAA receptor-chloride channel complex. Table 1 gives the IC50 values of representative steroids used in the present invention.
Regarding “3α-Hydroxy-3β-trifluoromethyl-5β-19-nor-pregn-17(20)-ene”, the IC50 was determined as 482 nM.
“20,20-ethylenedioxy-3α-hydroxy-5α-pregnan-20-one” registered an IC50 of 176 nM.
`CC(=O)[C@H]1CC[C@H]2[C@@H]3CC[C@@H]4C[C@@](O)(C#CCC(C)OC(=O)CCC(=O)O)CC[C@]4(C)[C@H]3CC[C@]12C` (mixture of isomers) [3α-Hydroxy-3β-[4'(R/S)-hydroxypentynyl]-5β-pregnan-20-one 4'(R/S)-hemisuccinate sodium salt] had an IC50 of 153 nM.
As for `CC(C)(O)[C@H]1CC[C@H]2[C@@H]3CC[C@H]4C[C@H](O)CC[C@]4(C)[C@H]3CC[C@]12C` [3α,20-dihydroxy-20-methyl-5α-pregnane], the IC50 turned out to be 151 nM.
For the compound `CCC[C@H](O)[C@H]1CC[C@H]2[C@@H]3CC[C@H]4C[C@H](O)CC[C@]4(C)[C@H]3CC[C@]12C` [3α,20a-Dihydroxy-21-ethyl-5α-pregnane], the 50% inhibitory concentration (IC50) worked out at 27 nM.
As for `CC[C@H](O)[C@H]1CC[C@H]2[C@@H]3CC[C@H]4C[C@H](O)CC[C@]4(C)[C@H]3CC[C@]12C` [3α,20a-Dihydroxy-21-methyl-5α-pregnane], the IC50 was found to be 35 nM.
Consider `C[C@H](O)[C@H]1CC[C@H]2[C@@H]3CC[C@H]4C[C@](C)(O)CC[C@]4(C)[C@H]3CC[C@]12C` [3α,20a-dihydroxy-30-methyl-5α-pregnane], for which the 50% inhibitory concentration (IC50) is 166 nM.
Turning to `C[C@@H](O)[C@H]1CC[C@H]2[C@@H]3CC[C@@H]4C[C@H](O)CC[C@]4(C)[C@H]3CC[C@]12C` [3α,20b-dihydroxy-5β-pregnane], the IC50 is 206 nM.
`C#C[C@@]1(O)CC[C@@]2(C)[C@@H](CC[C@@H]3[C@@H]2CC[C@]2(C)[C@@H](C(=O)CO)CC[C@@H]32)C1` [3α,21-Dihydroxy-3β-ethynyl-5α-pregnan-20-one] showed a 50% inhibitory concentration (IC50) of 216 nM.
`CC(=O)OCC(=O)[C@H]1CC[C@H]2[C@@H]3CC[C@@H]4C[C@@](O)(C(F)(F)F)CC[C@]4(C)[C@H]3CC[C@]12C` [3α,21-Dihydroxy-3β-trifluoromethyl-5β-pregnan-20-one, 21-acetate]: the IC50 stood at 370 nM.
Compound `C[C@@]1(O)CC[C@@]2(C)[C@@H](CC[C@@H]3[C@@H]2CC[C@]2(C)[C@@H](C(=O)COC(=O)CCC(=O)O)CC[C@@H]32)C1` [3α,21-dihydroxy-3β-methyl-5α-pregnan-20-one 21-Hemisuccinate] gave an IC50 of 241 nM.
With `CC(=O)OCC(=O)[C@H]1CC[C@H]2[C@@H]3CC[C@H]4C[C@H](O)CC[C@]4(C)[C@H]3CC[C@]12C` [3α,21-dihydroxy-5α-pregnan-20-one 21-acetate], the IC50 was 75 nM and 119 nM.
The compound `C[C@]12CC[C@@H](O)C[C@@H]1CC[C@@H]1[C@@H]2CC[C@]2(C)[C@@H](C(=O)COC(=O)CCC(=O)O)CC[C@@H]12` [3α,21-dihydroxy-5α-pregnan-20-one 21-hemisuccinate] registered an IC50 of 117 nM.
Same read-out and setting: the same measure for `C[C@]12CC[C@@H](O)C[C@H]1CC[C@@H]1[C@@H]2CC[C@]2(C)[C@@H](C(=O)COC(=O)CCC(=O)O)CC[C@@H]12` [3α,21-dihydroxy-5β-pregnan-20-one 21-hemisuccinate]: 224 nM; for `C[C@]12CC[C@@H](O)C[C@H]1CC[C@@H]1[C@@H]2CC[C@]2(C)[C@@H](C(=O)CO)CC[C@@H]12` [3α,21-dihydroxy-50-pregnan-20-one]: 180 nM; for `CC(C)(O)[C@H]1CC[C@H]2[C@@H]3CC[C@H]4C[C@](C)(O)CC[C@]4(C)[C@H]3CC[C@]12C` [3α, 20-dihydroxy-3β, 20-dimethyl-5α-pregnane]: 264 nM.
Turning to `C[C@H](O)[C@H]1CC[C@H]2[C@@H]3CC[C@@H]4C[C@H](O)CC[C@]4(C)[C@H]3CC[C@]12C` [3α, 20a-dihydroxy-5β-pregnane], the IC50 worked out at 292 nM.
The compound `C#C[C@@]1(O)CC[C@@]2(C)[C@H](CC[C@@H]3[C@@H]2CC[C@]2(C)[C@@H](C(=O)COC(C)=O)CC[C@@H]32)C1` [3α, 21-Dihydroxy-3β-ethynyl-5β-pregnan-20-one, 21-acetate] gave an IC50 of 251 nM.
Take `C[C@]12CC[C@H]3[C@@H](CC[C@@H]4C[C@@](O)(C(F)(F)F)CC[C@@H]43)[C@@H]1CC[C@@H]2C(=O)CO` [3α, 21-Dihydroxy-3β-trifluoromethyl-19-nor-5β-pregnan-20-one]: the half-inhibitory concentration (IC50) came out at 265 nM.
Compound `C[C@@]1(O)CC[C@@]2(C)[C@@H](CC[C@@H]3[C@@H]2CC[C@]2(C)[C@@H](C(=O)COS(C)(=O)=O)CC[C@@H]32)C1` [3α, 21-dihydroxy-3β-methyl-5α-pregnan-20-one 21-mesylate] yielded an IC50 of 255 nM.
Consider `C=CC[C@@]1(O)CC[C@@]2(C)[C@H](CC[C@@H]3[C@@H]2CC[C@]2(C)[C@@H](C(C)=O)CC[C@@H]32)C1` [3α-Hydroxy-3β-(2'-propenyl)-5β-pregnan-20-one], for which the half-inhibitory concentration (IC50) was found to be 75 nM.
Regarding `CC(=O)[C@H]1CC[C@H]2[C@@H]3CC[C@H]4C[C@@](O)(C#CC(C)O)CC[C@]4(C)[C@H]3CC[C@]12C` (stereo partly drawn) [3α-Hydroxy-3β-[3'(RS)-hydroxybutynyl]-5α-pregnan-20-one], the IC50 was 140 nM.
In turn, `C/C=C1/CC[C@H]2[C@@H]3CC[C@@H]4C[C@](C)(O)CC[C@@H]4[C@H]3CC[C@]12C` [3α-Hydroxy-3β-methyl-5β-19-nor-pregn-17 (Z)-ene] yielded an IC50 of 154 nM.
Regarding `CC(=O)[C@H]1CC[C@H]2[C@@H]3CC[C@@H]4C[C@](C)(O)CC[C@@H]4[C@H]3CC[C@]12C` [3α-Hydroxy-3β-methyl-5β-19-nor-pregnan-20-one], the IC50 was determined as 26 nM.
As for `CC(=O)[C@H]1CC[C@H]2[C@@H]3CC[C@H]4C[C@@](O)(C(F)(F)F)CC[C@@H]4[C@H]3CC[C@]12C` [3α-Hydroxy-3β-trifluoromethyl-19-nor-5α-pregnan-20-one], the IC50 turned out to be 251 nM.
Same read-out and setting: for `C[C@@]12CCC[C@H]1[C@@H]1CC[C@H]3C[C@H](O)CC[C@]3(C)[C@H]1CC2` [3α-Hydroxy-5α-androstane] the value was 252 nM; for `C/C=C1/CC[C@H]2[C@@H]3CC[C@@H]4C[C@H](O)CC[C@@H]4[C@H]3CC[C@]12C` [3α-Hydroxy-5β-19-nor-pregn-17(z) ene], 209 nM.
The compound `C#C[C@H]1CC[C@H]2[C@@H]3CC[C@H]4C[C@H](O)CC[C@]4(C)[C@H]3CC[C@]12C` [3α-Hydroxy-17b-ethynyl-5α-androstane] yielded a concentration for half-maximal inhibition (IC50) of 254 nM.
`CCC(=O)[C@H]1CC[C@H]2[C@@H]3CC[C@H]4C[C@](C)(O)CC[C@]4(C)[C@H]3CC[C@]12C` [3α-hydroxy-3β,21-dimethyl-5α-pregnan-20-one] had an IC50 of 89 nM.
The compound `CC(=O)[C@H]1CC[C@H]2[C@@H]3CC[C@H]4C[C@@](O)(CCl)CC[C@]4(C)[C@H]3CC[C@]12C` [3α-hydroxy-3β-chloromethyl-5α-pregnan-20-one] had a concentration for half-maximal inhibition (IC50) of 93 nM.
For `CC[C@@]1(O)CC[C@@]2(C)[C@@H](CC[C@@H]3[C@@H]2CC[C@]2(C)[C@@H](C(C)=O)CC[C@@H]32)C1` [3α-hydroxy-3β-ethyl-5α-pregnan-20-one], the IC50 was 265 nM.
The compound `CC(=O)[C@H]1CC[C@H]2[C@@H]3CC[C@H]4C[C@@](O)(CF)CC[C@]4(C)[C@H]3CC[C@]12C` [3α-hydroxy-3β-fluoromethyl-5α-pregnan-20-one] came in with an IC50 of 200 nM.
In the case of `COC[C@@]1(O)CC[C@@]2(C)[C@@H](CC[C@@H]3[C@@H]2CC[C@]2(C)[C@@H](C(C)=O)CC[C@@H]32)C1` [3α-hydroxy-3β-methoxymethyl-5α-pregnan-20-one], the concentration for half-maximal inhibition (IC50) turned out to be 67 nM.
`C/C=C1/CC[C@H]2[C@@H]3CC[C@H]4C[C@](C)(O)CC[C@@H]4[C@H]3CC[C@]12C` [3α-hydroxy-3β-methyl-5α-19-nor-pregn-(Z)-17(20)-ene] registered a half-inhibitory concentration (IC50) of 364 nM.
On to `CC(=O)[C@H]1CC[C@H]2[C@@H]3CC[C@H]4C[C@](C)(O)CC[C@@H]4[C@H]3CC[C@]12C` [3α-hydroxy-3β-methyl-5α-19-nor-pregnan-20-) one], for which the IC50 worked out at 91 nM.
Regarding `C/C=C1/CC[C@H]2[C@@H]3CC[C@@H]4C[C@H](O)CC[C@]4(C)[C@H]3CC[C@]12C` [3α-hydroxy-5β-pregnan-cis(Z)-17(20)-ene], the concentration for half-maximal inhibition (IC50) was 180 nM.
Same read-out and setting: for `CO/C=C1/CC[C@H]2[C@@H]3CC[C@H]4C[C@H](O)CC[C@@H]4[C@H]3CC[C@]12C` [3α-hydroxy-17(Z)-methoxymethylene-19-nor-5α-androstane] the value was 350 nM; for `C[C@]12CC[C@@H](O)C[C@@H]1CC[C@@H]1[C@@H]2CC[C@]2(C)[C@@H](C#N)CC[C@@H]12` [3α-hydroxy-17b-cyano-5α-androstane], 67 nM.

Still in this assay, the particulars now being: inhibition of [35S]TBPS (2 nM) binding, rat cerebral cortex P2 membranes, 5 µM GABA, 90 minute incubation at 22°C; sodium salt.
In the case of `C[C@@]1(O)CC[C@@]2(C)[C@@H](CC[C@@H]3[C@@H]2CC[C@]2(C)[C@@H](C(=O)COC(=O)CCC(=O)O)CC[C@@H]32)C1` [3α,21-dihydroxy-3β-methyl-5α-pregnan-20-one 21-Hemisuccinate, sodium salt], the IC50 was found to be 211 nM.
As to `C[C@]12CC[C@@H](O)C[C@@H]1CC[C@@H]1[C@@H]2CC[C@]2(C)[C@@H](C(=O)COC(=O)CCC(=O)O)CC[C@@H]12` [3α,21-dihydroxy-5α-pregnan-20-one 21-hemisuccinate, sodium salt], the IC50 amounted to 251 nM.
